# Laboratory results as given in the supplement of paper PMC10307832.
# Experiments:
# Test in all cases: relative viability (nuclei count vs DMSO), 5 days (fraction); higher = more cells survive
# RU-SKI 43 + Linsitinib = compound: CC[C@@H](C)CNCC(=O)N1CCC2=C([C@@H]1COC3=CC=CC(=C3)C)C=CS2 [RU-SKI 43] + C[C@]1(O)C[C@@H](c2nc(-c3ccc4ccc(-c5ccccc5)nc4c3)c3c(N)nccn32)C1 [Linsitinib] (partner 1 µM)
# Procedure, shortened: (§1)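 Cells from lung cancer lines were seeded into 1536-well plates and, one day later, dosed by pin tool. Treatments were either a single drug or a fixed dose of an anchor drug with five library-drug doses (not always all listed) in √10 steps. After 5 days, nuclei were stained in a one-step fixation (final 0.05% Triton X-100, 1% formaldehyde, 1 ug/ml Hoechst) and counted on 4× images, and relative viability is the treated-to-vehicle nuclei ratio, as the median of duplicate plates.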
# Irinotecan + Foretinib = compound: CCc1c2c(nc3ccc(OC(=O)N4CCC(N5CCCCC5)CC4)cc13)-c1cc3c(c(=O)n1C2)COC(=O)[C@]3(O)CC [Irinotecan] + COc1cc2c(Oc3ccc(NC(=O)C4(C(=O)Nc5ccc(F)cc5)CC4)cc3F)ccnc2cc1OCCCN1CCOCC1 [Foretinib] (partner 0.25 µM)
# Procedure, shortened: as §1
# Irinotecan + Decitabine = compound: CCc1c2c(nc3ccc(OC(=O)N4CCC(N5CCCCC5)CC4)cc13)-c1cc3c(c(=O)n1C2)COC(=O)[C@]3(O)CC [Irinotecan] + Nc1ncn([C@H]2C[C@H](O)[C@@H](CO)O2)c(=O)n1 [Decitabine] (partner 2 µM)
# Procedure, shortened: as §1
# MK-8033 + Alpelisib = compound: Cn1cc(-c2cnc3ccc4ccc(CS(=O)(=O)NCc5ccccn5)cc4c(=O)c3c2)cn1 [MK-8033] + Cc1nc(NC(=O)N2CCC[C@H]2C(N)=O)sc1-c1ccnc(C(C)(C)C(F)(F)F)c1 [Alpelisib] (partner 2 µM)
# Procedure, shortened: as §1
Cell Line,relative viability (RU-SKI 43 + Linsitinib; first compound 0.1 µM),relative viability (RU-SKI 43 + Linsitinib; first compound 0.3162 µM),relative viability (RU-SKI 43 + Linsitinib; first compound 1 µM),relative viability (RU-SKI 43 + Linsitinib; first compound 3.162 µM),relative viability (RU-SKI 43 + Linsitinib; first compound 10 µM),relative viability (Irinotecan + Foretinib; first compound 0.6325 µM),relative viability (Irinotecan + Foretinib; first compound 2 µM),relative viability (Irinotecan + Foretinib; first compound 6.325 µM),relative viability (Irinotecan + Foretinib; first compound 20 µM),relative viability (Irinotecan + Decitabine; first compound 0.6325 µM),relative viability (Irinotecan + Decitabine; first compound 2 µM),relative viability (Irinotecan + Decitabine; first compound 6.325 µM),relative viability (Irinotecan + Decitabine; first compound 20 µM),relative viability (MK-8033 + Alpelisib; first compound 0.02 µM),relative viability (MK-8033 + Alpelisib; first compound 0.06325 µM),relative viability (MK-8033 + Alpelisib; first compound 0.2 µM),relative viability (MK-8033 + Alpelisib; first compound 2 µM),relative viability (MK-8033 + Alpelisib; first compound 0.6325 µM)
HCC-78,0.576,0.551,0.712,0.344,0.551,0.695,0.491,0.282,0.24,0.607,0.479,0.335,0.328,0.271,0.293,0.267,0.357,
NCI-H441,0.538,0.462,0.654,0.533,0.473,0.786,0.66,0.29,0.342,0.208,0.166,0.227,0.324,0.853,0.643,0.648,0.67,0.709
NCI-H1299,1.03,1.2,1.1,1.04,0.965,0.888,0.909,0.483,0.212,,,,,0.985,1.02,1.07,1.1,0.99
LU99A,0.484,0.596,0.58,0.597,0.505,0.366,0.253,0.187,0.225,0.196,0.184,0.157,0.169,0.629,0.489,0.523,0.412,0.464
NCI-H1651,1.08,1.34,1.09,0.959,0.908,0.593,0.59,0.295,0.205,0.264,0.486,0.18,0.137,0.888,0.808,0.931,0.982,0.898
HARA,1.03,1.02,1.09,1.05,0.851,0.315,0.174,0.116,0.127,0.481,0.318,0.284,0.283,0.777,0.742,0.76,0.871,0.743
Calu-6,0.942,1.05,0.999,0.929,1.02,0.605,0.429,0.168,0.087,,,,,1.02,1.02,0.843,0.916,0.941
NCI-H1648,,,,,,,,,,0.501,0.469,0.446,0.428,,,,,
NCI-H522,,,,,,,,,,0.605,0.492,0.577,0.636,,,,,
CAL-12T,0.726,0.873,0.877,0.827,0.771,,0.924,0.398,0.293,,,,,1.08,1.08,1.08,1.06,1.25
ChaGo-K-1,,,,,,0.65,0.367,0.255,0.248,0.344,0.251,0.233,0.239,,,,,
EBC-1,1.04,0.936,0.847,0.956,0.827,0.0988,0.1,0.115,0.112,,,,,0.832,0.686,0.904,0.207,0.678
NCI-H2228,0.858,0.507,0.828,0.885,0.427,0.925,0.731,0.293,0.238,,,,,0.815,0.551,0.629,0.841,0.768
NCI-H1703,0.653,1.02,0.545,0.636,0.503,0.321,0.433,0.512,0.367,,,,,0.407,0.273,0.354,0.309,0.266
SW 900,,,,,,0.898,0.667,0.393,0.448,,0.4,0.354,0.367,,,,,
NCI-H1650,,,,,,,0.956,0.432,0.446,0.322,0.296,0.276,0.207,,,,,
NCI-H1563,1.2,1.2,1.11,1.09,1.13,0.966,0.928,0.975,0.425,,,,,1.02,0.918,0.883,0.93,1.02
NCI-H2170,,,,,,1.01,0.616,0.252,0.214,0.396,0.222,0.128,0.122,0.652,0.758,0.691,0.772,0.773
NCI-H1623,,,,,,0.621,0.64,0.299,0.279,,,,,,,,,
HCC-44,0.595,0.647,0.835,0.69,0.645,,,,,0.87,0.913,0.677,0.512,0.798,0.775,0.751,0.789,0.796
IA-LM,0.623,0.563,0.512,0.552,0.577,0.951,0.62,0.148,0.117,,,,,0.787,0.536,0.723,0.729,0.736
NCI-H2342,,,,,,1.17,0.928,0.826,0.525,0.732,0.789,0.68,0.436,,,,,
NCI-H1792,0.46,0.601,0.596,0.585,0.538,,,,,0.405,0.522,0.287,0.228,0.729,0.59,0.768,0.693,0.776
